This note sets out measurements from PubChem BioAssay (NCI).

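1) Cells in 96-well plates. 2) Compound, 48 h, 5 concentrations. 3) Linear interpolation between surrounding doses. 4) Unreached endpoint = highest concentration. TGI denotes the concentration required for complete inhibition of growth.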 Where only a bound is given, the exact number is not on record here.

What all share (experiment): DTP human tumour cell line panel, 48 h
Experiment [1] relates to UO-31 renal.
The test system of experiment [2] is LXFL 529 NSCLC.
The subject of experiment [3] is OVCAR-4 ovarian.
The subject of experiment [4] is DLD-1 colon.
In experiment [5] the test system is CAKI-1 renal.
For experiment [6], the system named is DMS 114 small cell lung.
The subject of experiment [7] is HOP-18 NSCLC.
The test system of experiment [8] is SK-MEL-28 melanoma.
For experiment [9], the system named is MDA-MB-435.
Experiment [10] concerns HS 578T breast.
The test system of experiment [11] is BT-549 breast.
Experiment [12] has as its system T-47D breast.

With `COc1ccc(/C=N/NC(=O)NCCNCCO)cc1`, the TGI in [1], in experiment [2], in experiment [3], in [4], in experiment [5] and in [6] was more than 100 µM each time. Also, the TGI in [7] and in experiment [8] was more than 100 µM throughout.
Regarding `Cc1c2cc[n+](C)cc2c(C)c2c1[nH]c1ccc(OC(C)(C)C)cc12`, the total growth inhibition concentration (TGI) in [1], in experiment [2], in experiment [3], in experiment [4], in [5] and in experiment [6] was more than 100 µM in each case. In addition, the TGI in experiment [7] and in experiment [8] was more than 100 µM in each case.
For `O=C(C#Cc1ccccc1)Nc1ccccc1CC(c1c[nH]c2ccccc12)c1c[nH]c2ccccc12`, the TGI in [1] is more than 100 µM; in [2], 28.4 µM; in experiment [4] it was more than 100 µM; in experiment [5] it was more than 100 µM; in experiment [8], 32.4 µM.
As to `Nc1nc2c(nnn2C2C=C(CO)C(O)C2O)c(=O)[nH]1` (stereo not drawn), the TGI in experiment [1], in [2], in experiment [3], in [4], in experiment [5] and in experiment [6] was more than 100 µM in each case. The concentration for total growth inhibition (TGI) in experiment [7] and in [8] was more than 100 µM each time.
For `C#CCN(Cc1ccc2nc(-c3ccccc3)c(Cl)nc2c1)c1ccc(Cl)c(Cl)c1`, the TGI in [1], in experiment [2], in experiment [3], in [4], in experiment [5] and in experiment [6] was more than 100 µM in each case. Moreover, the TGI in experiment [7] and in [8] was more than 100 µM in each case.
With `CCN1CC2(CO)CCC(OC)C34C5CC6C(OC)CC(O)(C5C6OC)C(O)(C(OC)C23)C14` (stereo not drawn), the total growth inhibition concentration (TGI) is more than 375 µM in [1]; more than 375 µM in experiment [3]; more than 59.4 µM in [4]; more than 375 µM in experiment [5]; more than 375 µM in experiment [6]; more than 375 µM in experiment [7]. In experiment [8], this molecule displayed a total growth inhibition concentration (TGI) of more than 375 µM.
Take `Cn1cnc([N+](=O)[O-])c1Sc1nnc(-c2ccc(Cl)cc2)n1C`: the TGI in experiment [1] was found to be 32.8 µM; in [2], 22.3 µM; in experiment [3] it was 27.1 µM; in experiment [4], 26.3 µM; in experiment [5], 29.7 µM; in experiment [6], 30.5 µM. For the same molecule, the TGI is 18.1 µM in experiment [7] and 27.4 µM in [8].
In the case of `CCN(CC)CCNC(=O)C1COc2ccc(-c3cc(=O)c4ccccc4o3)cc2O1` (stereo not drawn), the TGI in experiment [1] is 29.6 µM; in experiment [3], 35.8 µM; in experiment [4], more than 77.7 µM; in experiment [5] it was 43.3 µM; in experiment [7], 46.7 µM; in experiment [8] it was 33.4 µM.
Take `CCOC1=C2N=C(C(CC)c3ccc(F)cc3)N=C2C(=O)c2ccccc21` (stereo not drawn): the TGI in [1] is 55.5 µM; in experiment [2], more than 90.3 µM; in experiment [3], more than 94.4 µM; in experiment [4] it was more than 30.4 µM; in experiment [5], 84.7 µM; in experiment [6], more than 68.4 µM. In experiment [8], this molecule came in with a TGI of more than 89.4 µM.
As for `C#CCN1C(=O)CN2C(Cl)(Cl)C2(c2ccccc2)c2cc(Cl)ccc21` (stereo not drawn), the TGI in experiment [1], in experiment [2], in experiment [3], in experiment [4], in experiment [5] and in experiment [6] was more than 100 µM in each case. Also, the concentration for total growth inhibition (TGI) in [7] and in experiment [8] was more than 100 µM each time.
As to `Nc1ccc2ncc(NCc3ccc(F)cc3)nc2c1`, the TGI in experiment [1], in [2], in [3], in [4], in experiment [5] and in experiment [6] was more than 100 µM each time. Besides, the TGI in [7] and in [8] was more than 100 µM in each case.
As for `O=C1C(Nc2ccc(S(=O)(=O)Nc3cnc4ccccc4n3)cc2)=CC(=Nc2ccc(S(=O)(=O)Nc3cnc4ccccc4n3)cc2)c2ccccc21`, the TGI turned out to be 34 µM in experiment [9]; 30.4 µM in experiment [1]; 29.5 µM in experiment [2]; 47.2 µM in experiment [3]; 31.8 µM in experiment [4]; 31.2 µM in [5]. In addition, the TGI was 38 µM in [6], 26.9 µM in experiment [7], 33 µM in experiment [8] and more than 100 µM in experiment [10].
Take `O=C1C2=C(c3ccccc31)C(c1ccc([N+](=O)[O-])cc1)NC(=S)N2` (stereo not drawn): the TGI in experiment [1], in [2], in experiment [3], in experiment [4], in [5] and in experiment [6] was more than 100 µM in each case. The TGI in experiment [8] is more than 100 µM.
`Cc1ccc(C2=C(c3ccccc3)C(O)(c3ccccc3)C(c3ccccc3)=C2c2ccc(C)cc2)cc1`: the TGI in [1], in [2], in experiment [4], in experiment [7] and in experiment [8] was more than 100 µM in each case.
`CC(C)C(N=C1CC2CCC1(C(=O)Nc1ccccc1O)C2(C)C)c1ccccc1` (stereo not drawn): the TGI in experiment [1], in experiment [2], in experiment [3], in [4], in experiment [5] and in experiment [6] was more than 10 µM throughout. Moreover, the TGI in experiment [7] and in experiment [8] was more than 10 µM in each case.
On to `O/N=C1/C(=C/c2ccc(Br)cc2)CCCC1C(NO)c1ccc(Br)cc1` (stereo not drawn), for which the TGI in [1] came to 31.3 µM; in [2], 27.9 µM; in [3], 23.3 µM; in experiment [6], 29.6 µM; in [7], 33.8 µM; in [8], 34.4 µM.
In the case of `CC(=O)Nc1ccc(S(=O)(=O)Nc2cnc3ccccc3n2)cc1`, the TGI in experiment [1], in experiment [2], in experiment [3], in experiment [4], in [5] and in [6] was more than 100 µM each time. For the same molecule, the TGI in [7] and in [8] was more than 100 µM in each case.
For the molecule `c1ccc(C2SCc3nc4ccccc4n32)cc1` (stereo not drawn), the TGI is more than 100 µM in experiment [1]; more than 100 µM in experiment [3]; more than 100 µM in [4]; more than 100 µM in experiment [5]; 63.4 µM in [6]; 51.7 µM in experiment [7]. The total growth inhibition concentration (TGI) in experiment [8] was more than 100 µM.
On to `N#Cc1cc([N+](=O)[O-])ccc1NC(=O)C(=O)Nn1c(=S)[nH]c2ccccc2c1=O`, for which the TGI in experiment [1], in experiment [2], in [3], in experiment [4], in experiment [5] and in [7] was more than 100 µM throughout. This molecule also gave a concentration for total growth inhibition (TGI) in [8] of more than 100 µM.
As for `COc1ccc(/C=C2\CCC(C)(CN(C)C)C2=O)cc1Br` (stereo not drawn), the TGI in experiment [9] was 44 µM; in experiment [1], 33.3 µM; in [2] it was 31.8 µM; in experiment [3] it was 35.9 µM; in experiment [4], 37.4 µM; in [5] it was more than 91.6 µM. Further, the TGI was 51.9 µM in experiment [6]; more than 100 µM in [7]; 45.4 µM in experiment [11]; 45.4 µM in [8]; 85.4 µM in [10].
On to `O=S1(=O)OCCOS(=O)(=O)C1C1c2ccccc2-c2ccccc21`, for which the total growth inhibition concentration (TGI) in experiment [9] is more than 100 µM; in experiment [1], 93.2 µM; in [3], 52.4 µM; in experiment [5] it was 98.5 µM; in experiment [11], more than 100 µM; in experiment [8], more than 100 µM. The TGI in experiment [10] and in experiment [12] was more than 100 µM each time.
